Measured values: ChEMBL document CHEMBL1201862, “PubChem BioAssay data set” (2004)
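Where inhibition never reached the appropriate level, the endpoint shown equals the highest concentration tested. Otherwise, values were interpolated linearly from a five-concentration, 48-hour dose response in 96-well plates. GI50 is the concentration that inhibits growth by half.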 Active and inactive are the calls of the source. No stated cut-off is given here; in the data, active = GI50 up to about 1.1 µM and inactive = higher.

What was measured:
Assay in all cases: NCI tumour cell line growth inhibition, 48 h
UACC-257 = test system: UACC-257
RXF 393 = test system: RXF 393
SN12C = test system: SN12C
SNB-19 = test system: SNB-19
MOLT-4 = test system: MOLT-4
OVCAR-4 = test system: OVCAR-4
SNB-75 = test system: SNB-75
TK-10 = test system: TK-10
SK-MEL-2 = test system: SK-MEL-2
HL-60 = test system: HL-60
SF-268 = test system: SF-268
Malme-3M = test system: Malme-3M
CCRF-CEM = test system: CCRF-CEM
CAKI-1 = test system: CAKI-1

Measured: GI50

C[n+]1c2ccccc2c(NC(CCC(N)=O)C(=O)O)c2ccccc21 (centres undefined)
inactive: UACC-257 > 100 µM | RXF 393 > 100 µM | SN12C > 100 µM | SNB-19 > 100 µM | MOLT-4 > 100 µM | OVCAR-4 > 100 µM | SNB-75 > 100 µM | TK-10 > 100 µM | SK-MEL-2 > 100 µM | HL-60 > 100 µM | SF-268 > 100 µM | Malme-3M > 100 µM

CCOC(=O)Cn1c2ccccc2c(=O)c2cc(C)c(C)c(C#N)c21
inactive: UACC-257 > 100 µM | RXF 393 63.7 µM | SN12C > 100 µM | SNB-19 > 100 µM | MOLT-4 > 100 µM | SNB-75 23.2 µM | TK-10 > 100 µM | SK-MEL-2 > 100 µM | HL-60 > 100 µM | SF-268 > 100 µM | Malme-3M > 100 µM | CCRF-CEM > 100 µM

Nc1c2ccccc2nc2nccnc12
inactive: UACC-257 > 100 µM | RXF 393 > 100 µM | SN12C > 100 µM | SNB-19 > 100 µM | MOLT-4 > 100 µM | OVCAR-4 > 100 µM | SNB-75 > 100 µM | TK-10 > 100 µM | SK-MEL-2 > 100 µM | CAKI-1 > 100 µM | HL-60 > 100 µM | SF-268 > 100 µM | Malme-3M > 100 µM | CCRF-CEM > 100 µM

Clc1cc(Cl)c2c(Cl)cc(Cl)c3c2c1N=S=N3
inactive: UACC-257 > 100 µM | RXF 393 > 100 µM | SNB-19 > 100 µM | MOLT-4 2.86 µM | OVCAR-4 > 100 µM | SNB-75 > 100 µM | TK-10 > 100 µM | SK-MEL-2 > 100 µM | CAKI-1 > 100 µM | HL-60 94.6 µM | SF-268 > 100 µM | Malme-3M > 100 µM | CCRF-CEM 52.1 µM

O=C(Nc1ccccc1Cl)c1ccc([N+](=O)[O-])cc1
inactive: UACC-257 > 100 µM | RXF 393 33.3 µM | SN12C > 100 µM | SNB-19 41.2 µM | MOLT-4 > 100 µM | SNB-75 22.4 µM | TK-10 > 100 µM | SK-MEL-2 > 100 µM | CAKI-1 > 100 µM | SF-268 > 100 µM | Malme-3M > 100 µM | CCRF-CEM > 100 µM

COc1ccc(-c2oc3cc(O)c(OC)c(O)c3c(=O)c2OC2OC(CO)C(O)C(O)C2O)cc1 (centres undefined)
inactive: SN12C > 100 µM | SNB-19 > 100 µM | MOLT-4 > 100 µM | OVCAR-4 > 100 µM | SNB-75 > 100 µM | TK-10 > 100 µM | SK-MEL-2 > 100 µM | HL-60 > 100 µM | CCRF-CEM > 100 µM

CC1=C(C)CC2(CCCCC2=O)[S+]([O-])C1 (centres undefined)
inactive: UACC-257 > 100 µM | RXF 393 > 100 µM | SN12C > 100 µM | SNB-19 > 100 µM | MOLT-4 > 100 µM | OVCAR-4 > 100 µM | SNB-75 > 100 µM | TK-10 > 100 µM | SK-MEL-2 > 100 µM | HL-60 > 100 µM | SF-268 > 100 µM | Malme-3M > 100 µM | CCRF-CEM > 100 µM

COc1cc(/C=C(\C#N)c2ccccc2)cc(OC)c1
inactive: UACC-257 8.59 µM | SN12C 74.6 µM | SNB-19 > 100 µM | MOLT-4 16.4 µM | OVCAR-4 > 100 µM | TK-10 > 100 µM | SK-MEL-2 73.6 µM | CAKI-1 51.1 µM | HL-60 24.3 µM | SF-268 40.9 µM | Malme-3M > 100 µM | CCRF-CEM 30.7 µM

CS/C(c1ccccc1)=[N+](/C)[O-]
inactive: UACC-257 > 100 µM | RXF 393 > 100 µM | SN12C > 100 µM | SNB-19 > 100 µM | MOLT-4 > 100 µM | OVCAR-4 > 100 µM | SNB-75 > 64.6 µM | TK-10 > 100 µM | SK-MEL-2 > 100 µM | CAKI-1 > 100 µM | HL-60 > 100 µM | SF-268 > 100 µM | Malme-3M > 100 µM | CCRF-CEM > 51.2 µM

C[Si](C)(C)/C(Br)=C\CCN1C(=O)CCC1O (centres undefined)
inactive: UACC-257 > 100 µM | RXF 393 > 100 µM | SN12C > 100 µM | SNB-19 > 100 µM | MOLT-4 > 100 µM | OVCAR-4 > 100 µM | SNB-75 34.2 µM | TK-10 > 100 µM | SK-MEL-2 > 100 µM | SF-268 > 100 µM | Malme-3M > 100 µM | CCRF-CEM > 100 µM

CCOC(=O)N1C2C=C(C)C(C3C(C)C(=O)N31)N(C(=O)c1ccccc1)O2 (centres undefined)
inactive: UACC-257 > 100 µM | RXF 393 > 100 µM | SN12C > 100 µM | SNB-19 > 100 µM | MOLT-4 > 100 µM | OVCAR-4 > 100 µM | SNB-75 > 100 µM | TK-10 > 100 µM | SK-MEL-2 > 100 µM | CAKI-1 > 100 µM | HL-60 > 100 µM | SF-268 > 100 µM | Malme-3M > 100 µM | CCRF-CEM > 100 µM

C/C(CC(=O)Nc1ccc(NC(=O)/C(C)=N/NS(=O)(=O)c2ccc(C)cc2)cc1)=N\NS(=O)(=O)c1ccc(C)cc1
inactive: UACC-257 > 100 µM | RXF 393 > 100 µM | SN12C > 100 µM | MOLT-4 > 100 µM | SNB-75 > 100 µM | TK-10 > 100 µM | SK-MEL-2 > 100 µM | CAKI-1 > 100 µM | HL-60 > 100 µM | SF-268 > 100 µM | Malme-3M > 100 µM | CCRF-CEM > 10 µM

C[C@H]1CC[P+](C)(c2ccccc2)C1 (some centres undefined)
inactive: UACC-257 > 100 µM | RXF 393 > 100 µM | SN12C > 100 µM | SNB-19 > 100 µM | MOLT-4 > 100 µM | SNB-75 > 100 µM | TK-10 > 100 µM | SK-MEL-2 > 100 µM | HL-60 > 100 µM | Malme-3M > 100 µM | CCRF-CEM > 100 µM

CCc1cc2c(O)c(c1)Cc1cc(CC)cc(c1O)Cc1cc(CC)cc(c1O)Cc1cc(CC)cc(c1O)Cc1cc(CC)cc(c1O)Cc1cc(CC)cc(c1O)Cc1cc(CC)cc(c1O)C2
inactive: UACC-257 > 100 µM | RXF 393 16.9 µM | SN12C > 100 µM | SNB-19 22.1 µM | MOLT-4 78.2 µM | OVCAR-4 > 100 µM | SNB-75 28.6 µM | TK-10 > 100 µM | SK-MEL-2 > 100 µM | HL-60 > 100 µM | SF-268 > 100 µM | Malme-3M > 100 µM | CCRF-CEM > 100 µM

NC(CNc1ccc(O)cc1)C(=O)O (centres undefined)
inactive: UACC-257 > 100 µM | RXF 393 > 100 µM | SN12C > 100 µM | SNB-19 > 100 µM | MOLT-4 > 100 µM | OVCAR-4 17.4 µM | SNB-75 > 100 µM | TK-10 > 100 µM | SK-MEL-2 60.4 µM | CAKI-1 81.8 µM | HL-60 31.5 µM | SF-268 > 100 µM | Malme-3M > 100 µM | CCRF-CEM 33.6 µM

O=S1OC(c2ccccc2)(c2ccccc2)C(c2ccccc2)(c2ccccc2)O1
inactive: UACC-257 46.6 µM | RXF 393 > 72.1 µM | SN12C > 100 µM | SNB-19 > 100 µM | MOLT-4 5.26 µM | OVCAR-4 45.2 µM | SNB-75 > 56.4 µM | TK-10 > 100 µM | HL-60 7.96 µM | SF-268 > 91.4 µM | Malme-3M > 100 µM | CCRF-CEM 7.01 µM

CCCCCCCC(=O)OCC(C[As](=O)(O)O)OC(=O)CCCCCCC (centres undefined)
inactive: UACC-257 14.8 µM | RXF 393 5.01 µM | SN12C 14.7 µM | SNB-19 14.8 µM | MOLT-4 16.6 µM | OVCAR-4 19.7 µM | SNB-75 15.7 µM | HL-60 5.56 µM | SF-268 14.9 µM | Malme-3M 15.1 µM | CCRF-CEM 6.49 µM

Cc1ccc(Nc2cccc3c2C(=O)c2cccc(Nc4ccc(C)cc4S(=O)(=O)O)c2C3=O)c(S(=O)(=O)O)c1
inactive: UACC-257 > 100 µM | RXF 393 > 100 µM | SN12C > 100 µM | SNB-19 > 100 µM | MOLT-4 > 100 µM | OVCAR-4 > 100 µM | SNB-75 > 100 µM | TK-10 > 100 µM | SK-MEL-2 > 100 µM | CAKI-1 > 100 µM | HL-60 > 100 µM | SF-268 > 100 µM | Malme-3M > 100 µM | CCRF-CEM > 100 µM

c1ccc(C2OC3(CCC[C@H]4C[C@H]43)O[C@H]2c2ccccc2)cc1 (some centres undefined)
inactive: UACC-257 30.9 µM | RXF 393 38.5 µM | SN12C 34.4 µM | SNB-19 44.4 µM | MOLT-4 25.8 µM | OVCAR-4 53.2 µM | SNB-75 26.5 µM | TK-10 > 100 µM | SK-MEL-2 21.5 µM | CAKI-1 29.6 µM | HL-60 19.8 µM | SF-268 73.8 µM | Malme-3M 34.5 µM | CCRF-CEM 22.2 µM

CC1C=CC(O)[C@]2(CO)CC3(CCC12)OCCO3 (some centres undefined)
inactive: UACC-257 > 100 µM | RXF 393 > 100 µM | SN12C > 100 µM | SNB-19 > 100 µM | MOLT-4 > 100 µM | OVCAR-4 > 100 µM | SNB-75 > 100 µM | TK-10 > 100 µM | SK-MEL-2 > 100 µM | CAKI-1 > 100 µM | HL-60 > 100 µM | SF-268 > 100 µM | Malme-3M > 100 µM | CCRF-CEM > 100 µM

O=C(CC(=O)c1ccccc1)c1ccccc1.O=C(CC(=O)c1ccccc1)c1ccccc1.O=C(CC(=O)c1ccccc1)c1ccccc1.[SiH4]
inactive: UACC-257 9.42 µM | SN12C 3.95 µM | SNB-19 4.74 µM | MOLT-4 2.59 µM | OVCAR-4 4.63 µM | SNB-75 10.4 µM | TK-10 5.97 µM | CAKI-1 4.92 µM | HL-60 1.92 µM | SF-268 3.37 µM | Malme-3M 11.8 µM | CCRF-CEM 1.14 µM
